Data published in paper PMC4468608, “A distinct p53 target gene set predicts for response to the selective p53–HDM2 inhibitor NVP-CGM097” (eLife, 2015).
Like-named read-outs stand apart in the source and are kept apart here.

System: cell lines from the Cancer Cell Line Encyclopedia (CCLE)
Assay: High-throughput cell viability assay, CCLE cell line panel (n = 356)
Assay type: cell-based, human
Details: Homo sapiens
Procedure: Cell lines were partitioned into sensitive and insensitive groups based on compound potency (IC50). […] All other cell lines were obtained from ATCC (American Type Culture Collection), DSMZ (Deutsche Sammlung von Mikroorganismen und Zellkulturen), and HSRRB (Health Science Research Resources Bank) and cultured in RPMI or Dulbecco's modified Eagle's medium plus 10% FBS (Invitrogen, Carlsbad, CA) at 37°C, 5% CO2.

COc1cc2c(cc1OC(C)C)[C@H](c1ccc(Cl)cc1)N(c1ccc(N(C)C[C@H]3CC[C@H](N4CCNC(=O)C4)CC3)cc1)C(=O)C2 [NVP-CFC218]
IC50 (LOX IMVI, TP53 WT): > 8 µM
IC50 (LP-1, TP53 MUT): 7.24 µM
IC50 (LS-1034, LS1034, TP53 MUT): > 8 µM
IC50 (LUDLU-1, LUDLU-1, TP53 MUT): > 8 µM
IC50 (Loucy, TP53 MUT): 7.62 µM
IC50 (Lu-65, LU65, TP53 MUT): > 8 µM
IC50 (Lu-99, LU99, TP53 WT): 2.71 µM
IC50 (MC116, MC116, TP53 MUT): 5.21 µM
IC50 (MDA-MB-415, MDA-MB-415, TP53 MUT): 7.62 µM
IC50 (MDA-MB-453, MDA-MB-453, TP53 WT): > 8 µM
IC50 (MDA-MB-468, MDA-MB-468, TP53 MUT): > 8 µM
IC50 (MEG-01, MEG-01, TP53 MUT): > 8 µM
IC50 (MFE-280, MFE-280, TP53 MUT): 6.92 µM
IC50 (MFE-296, MFE-296, TP53 MUT): > 8 µM
IC50 (MFE-319, TP53 MUT): > 8 µM
IC50 (MG-63, MG-63, TP53 WT): > 8 µM
IC50 (MHH-ES-1, read-out: NVP- CFC218 IC50 (µM), cell line MHH-ES-1, bone, TP53 MUT): > 8 µM
IC50 (MIA PaCa-2, MIA PaCa-2, TP53 MUT): > 8 µM
IC50 (MKN-74, MKN74, TP53 MUT): > 8 µM
IC50 (MOG-G-CCM, TP53 MUT): > 8 µM
IC50 (MOG-G-UVW, TP53 WT): > 8 µM
IC50 (MOLM16, MOLM-16, TP53 MUT): > 8 µM
IC50 (MOLM-13, MOLM-13, TP53 WT): 0.69 µM
IC50 (MOR/CPR, TP53 MUT): > 8 µM
IC50 (MPP 89, TP53 WT): > 8 µM
IC50 (Malme-3M, read-out: NVP- CFC218 IC50 (µM), cell line Malme-3M, skin, TP53 WT): > 8 µM
IC50 (MeWo, TP53 MUT): > 8 µM
IC50 (Mono-Mac-1, MONO-MAC-1, TP53 MUT): > 8 µM
IC50 (NALM-6, NALM-6, TP53 WT): 1.16 µM
IC50 (NB-4, TP53 MUT): > 8 µM
IC50 (NCI-H23, NCI-H23, TP53 MUT): > 8 µM
IC50 (NCI-H211, NCI-H211, TP53 MUT): > 8 µM
IC50 (NCI-H358, NCI-H358, TP53 WT): > 8 µM
IC50 (NCI-H441, NCI-H441, TP53 MUT): > 8 µM
IC50 (NCI-H460, read-out: NVP- CFC218 IC50 (µM), cell line NCI-H460, lung, TP53 WT): > 8 µM
IC50 (NCI-H520, NCI-H520, TP53 MUT): > 8 µM
IC50 (NCI-H647, read-out: NVP- CFC218 IC50 (µM), cell line NCI-H647, lung, TP53 MUT): > 8 µM
IC50 (NCI-H650, NCI-H650, TP53 MUT): > 8 µM
IC50 (NCI-H747, NCI-H747, TP53 MUT): > 8 µM
IC50 (NCI-H810, NCI-H810, TP53 MUT): > 8 µM
IC50 (NCI-H889, NCI-H889, TP53 MUT): > 8 µM
IC50 (NCI-H1299, read-out: NVP- CFC218 IC50 (µM), cell line NCI-H1299, lung, TP53 WT): > 8 µM
IC50 (NCI-H1355, NCI-H1355, TP53 MUT): > 8 µM
IC50 (NCI-H1373, NCI-H1373, TP53 MUT): > 8 µM
IC50 (NCI-H1435, NCI-H1435, TP53 MUT): > 8 µM
IC50 (NCI-H1573, NCI-H1573, TP53 MUT): > 8 µM
IC50 (NCI-H1581, NCI-H1581, TP53 MUT): > 8 µM
IC50 (NCI-H1648, NCI-H1648, TP53 MUT): > 8 µM
IC50 (NCI-H1650, read-out: NVP- CFC218 IC50 (µM), cell line NCI-H1650, lung, TP53 MUT): > 8 µM
IC50 (NCI-H1651, NCI-H1651, TP53 MUT): > 8 µM
IC50 (NCI-H1666, NCI-H1666, TP53 WT): 0.88 µM
IC50 (NCI-H1693, read-out: NVP- CFC218 IC50 (µM), cell line NCI-H1693, lung, TP53 MUT): > 8 µM
IC50 (NCI-H1703, read-out: NVP- CFC218 IC50 (µM), cell line NCI-H1703, lung, TP53 MUT): > 8 µM
IC50 (NCI-H1734, NCI-H1734, TP53 MUT): > 8 µM
IC50 (NCI-H1792, NCI-H1792, TP53 MUT): > 8 µM
IC50 (NCI-H1915, NCI-H1915, TP53 MUT): > 8 µM
IC50 (NCI-H1944, NCI-H1944, TP53 WT): 6.39 µM
IC50 (NCI-H1975, NCI-H1975, TP53 MUT): > 8 µM
IC50 (NCI-H2009, NCI-H2009, TP53 MUT): > 8 µM
IC50 (NCI-H2052, NCI-H2052, TP53 WT): 3.36 µM
IC50 (NCI-H2087, NCI-H2087, TP53 MUT): > 8 µM
IC50 (NCI-H2110, NCI-H2110, TP53 MUT): > 8 µM
IC50 (NCI-H2122, NCI-H2122, TP53 MUT): 1.9 µM
IC50 (NCI-H2172, NCI-H2172, TP53 WT): > 8 µM
IC50 (NCI-H2196, NCI-H2196, TP53 MUT): > 8 µM
IC50 (NCI-H2347, NCI-H2347, TP53 WT): > 8 µM
IC50 (NCI-H2444, NCI-H2444, TP53 MUT): > 8 µM
IC50 (NCI-H2452, NCI-H2452, TP53 WT): > 8 µM
IC50 (NCO2, TP53 MUT): > 8 µM
IC50 (OAW-42, read-out: NVP- CFC218 IC50 (µM), cell line OAW42, ovary, TP53 WT): > 8 µM
IC50 (OC 316, TP53 MUT): > 8 µM
IC50 (OCI-AML2, OCI-AML2, TP53 WT): 2.38 µM
IC50 (OCI-Ly10, OCI-LY10, TP53 MUT): > 8 µM
IC50 (OCI-M1, OCI-M1, TP53 MUT): > 8 µM
IC50 (OE19, read-out: NVP- CFC218 IC50 (µM), cell line OE19, oesophagus, TP53 MUT): > 8 µM
IC50 (OE33, OE33, TP53 MUT): > 8 µM
IC50 (ONS-76, ONS-76, TP53 WT): > 8 µM
IC50 (OPM-2, OPM-2, TP53 MUT): > 8 µM
IC50 (OV-90, OV-90, TP53 MUT): > 8 µM
IC50 (OVCAR-3, NIH:OVCAR-3, TP53 MUT): > 8 µM
IC50 (OVCAR-4, OVCAR-4, TP53 MUT): > 8 µM
IC50 (OVCAR-8, read-out: NVP- CFC218 IC50 (µM), cell line OVCAR-8, ovary, TP53 MUT): > 8 µM
IC50 (OVSAHO, TP53 MUT): > 8 µM
IC50 (P3HR-1, P3HR-1, TP53 MUT): > 8 µM
IC50 (P12-Ichikawa, TP53 MUT): 2.5 µM
IC50 (P31-FUJ, P31/FUJ, TP53 MUT): > 8 µM
